Measured values as given in patent publication US12509460B2 (Skyhawk Therapeutics, Inc., priority 2019, dated 2025).
Read-outs that look alike come from different tables or passages of the source.

Key:
[1] = tested on: mHTT protein in GM04724 (CAG 70/20) Huntington's disease patient lymphoblast cells; test: mHTT protein assay, 2B7-MW1 assay via Mesoscale Discovery (MSD); format: cell-based, human
Experimental: Example A10: mHTT Protein Assay
Compounds are tested on GM04724 (CAG 70/20) Huntington's disease patient lymphoblast cells at doses ranging from 10 μM to 0.6 nM. 4,500 cells/well are seeded in 384 well plates. One plate replica is carried out for parallel viability testing by CellTiter Glo (CTG). Compounds are incubated for 48 hours. mHTT protein levels are assessed by the 2B7-MW1 assay via Mesoscale Discovery (MSD) as previously reported (Macdonald et al., 2014). The antibody pair is comprised of previously characterized monoclonals (2B7 and MW1) interrogating two regions for HTT conformation and biological properties: the N, 17 domain and the polyQ domain (Baldo et al., 2012; Ko et., 2001). 2B7-MW1 is […] specific levels of HTT at the time of treatment. 2B7-MW1 is dependent on polyQ expansion (e.g., the higher the expansion the higher the signal) and on mHTT size (e.g., a similar polyQ will give higher signal with smaller HTT size). The viability readout is carried out by CTG according to the manufacturer's instructions.

[2] = tested on: SMN protein in spinal muscular atrophy (SMA) patient fibroblasts (GM03813, Coriell); test: SMN protein assay, Mesoscale Discovery (MSD); format: cell-based, human; settings: for EC50: read-out: SMN2 protein EC50
Experimental: Example A12: SMN Protein Assay
Compounds are tested on spinal muscular atrophy (SMA) patient fibroblasts (GM03813, Coriell) at doses ranging from 2.5 μM to 0.6 nM. 7000 cells/well are seeded in 96-well plates. Compounds are incubated for 48 hours and the cells were lysed with 100 μL of lysis buffer. 20 μL of lysate is used for SMN protein measurement by Mesoscale Discovery (MSD) assay developed by PharmOptima (Michigan). A standard curve prepared with SMN protein ranging from 1 μg/ml to 19.5 pg/ml is used in each MSD plate to calculate the absolute SMN protein amount in each sample.

[3] = tested on: MDR1 (P-gp); test: Blood-brain-barrier (BBB) penetration potential via MDCK-MDR1 permeability assay; settings: dog; for efflux ratio at 120 min, 5 μM: MDCK-MDR1, pH 7.4, MDCK-MDR1: Efflux; for Papp A→B at 120 min, 5 μM: MDCK-MDR1, pH 7.4, MDCK-MDR1: Papp A-B; for Papp B→A at 120 min, 5 μM: MDCK-MDR1, pH 7.4, MDCK-MDR1: Papp B-A
[4] = tested on: MDR1-MDCK cell monolayers; test: as above
[5] = tested on: MDR1; test: as above; settings: dog, MDCK-MDR1, pH 7.4, MDCK-MDR1: Efflux
[6] = GM04724 (CAG 70/20) Huntington's disease patient lymphoblasts
[7] = SMA patient fibroblasts GM03813, 48 hours, MSD
[8] = GM04724 Huntington's disease patient lymphoblasts
[9] = SMA patient fibroblasts (GM03813), 48 hours

Structure (SMILES)	EC50 [1, 6]	EC50 [2, 7]	efflux ratio at 120 min, 5 μM ([3]; efflux ratio)	Papp A→B at 120 min, 5 μM ([3]; A-B direction)	Papp B→A at 120 min, 5 μM ([3]; B-A direction)	MDCK-MDR1: % Recov A-B ([4]; A-B direction)	MDCK-MDR1: % Recov B-A ([4]; B-A direction)	EC50 [1, 8]	efflux ratio at 120 min, 5 μM ([5]; efflux ratio)	EC50 [2, 9]	Papp A→B at 120 min, 5 μM ([3]; A-B)	Papp B→A at 120 min, 5 μM ([3]; B-A)	efflux ratio at 120 min, 5 μM [5]	MDCK-MDR1: % Recov A-B ([4]; A-B)	MDCK-MDR1: % Recov B-A ([4]; B-A)	SMN2 protein EC50 [2, 7]	efflux ratio at 120 min, 5 μM [3]
Cc1nc2cc(-c3ccc(N(C)[C@H]4C[C@@H]5CC[C@@H](N5)[C@H]4F)nn3)c(O)cc2o1 [Compound 118B, 5-(6-(((1R,2R,3S,5S)-2-fluoro-8-azabicyclo[3.2.1]octan-3-yl)(methyl)amino)pyridazin-3-yl)-2-methylbenzo[d]oxazol-6-ol]	0.01 to 15 nM																
CN(c1ccc(-c2ccc(-c3cnn(C)c3)cc2O)nn1)[C@H]1C[C@H]2CC(F)(F)[C@H](C1)N2 (single isomer, unassigned) [Compound 3B]		101 to 500 nM	1	16.3 ×10⁻⁶ cm/s	22.7 ×10⁻⁶ cm/s	80%	71%	51 to 100 nM									
CC#Cc1ccc(-c2ccc(N(C)C3CC4CCC(N4)C3F)nn2)c(O)c1 (single isomer, unassigned) [Compound 30B]		101 to 500 nM	1	10.6 ×10⁻⁶ cm/s	11 ×10⁻⁶ cm/s	38%	69%	51 to 100 nM									
Cc1cnc(-c2ccc(-c3ccc(N(C)[C@@H]4C[C@H]5CC[C@H](N5)[C@@H]4F)nn3)c(O)c2)o1 [Compound 48A, 2-(6-(((1S,2S,3R,5R)-2-fluoro-8-azabicyclo[3.2.1]octan-3-yl)(methyl)amino)pyridazin-3-yl)-5-(5-methyloxazol-2-yl)phenol]		0.01 to 15 nM		3.71 ×10⁻⁶ cm/s	29 ×10⁻⁶ cm/s	58%	76%	51 to 100 nM	8								
CN(c1ccc(-c2cc3ncn(C)c(=O)c3cc2O)nn1)[C@@H]1C[C@H]2CC[C@@H]([C@@H]1F)N2C [Compound 101A, 7-(6-(((1S,2S,3R,5R)-2-fluoro-8-methyl-8-azabicyclo[3.2.1]octan-3-yl)(methyl)amino)pyridazin-3-yl)-6-hydroxy-3-methylquinazolin-4(3H)-one]	101 to 500 nM									51 to 100 nM	2.81 ×10⁻⁶ cm/s	72.6 ×10⁻⁶ cm/s	26	101%	109%		
CN(c1ccc(-c2ccc(-c3cnc(C#N)cn3)cc2O)nn1)[C@@H]1C[C@H]2CCC[C@H](N2)[C@@H]1F [Compound 28A, 5-(4-(6-(((1S,2S,3R,5R)-2-fluoro-9-azabicyclo[3.3.1]nonan-3-yl)(methyl)amino)pyridazin-3-yl)-3-hydroxyphenyl) pyrazine-2-carbonitrile]				1.41 ×10⁻⁶ cm/s	28.4 ×10⁻⁶ cm/s	40%	61%	16 to 50 nM	20							E (501 ≤ E ≤ 10.000)	
CN(c1ccc(-c2ccc(C3=CCCC3)cc2O)nn1)[C@@H]1C[C@H]2CC[C@H](N2)[C@@H]1F [Compound 34A, 5-(cyclopent-1-en-1-yl)-2-(6-(((1S,2S,3R,5R)-2-fluoro-8-azabicyclo[3.2.1]octan-3-yl)(methyl)amino)pyridazin-3-yl)phenol]		16 to 50 nM		0.63 ×10⁻⁶ cm/s	1.05 ×10⁻⁶ cm/s	8%	55%	101 to 500 nM	2								
CN(c1ccc(-c2cc3ccncc3cc2O)nn1)[C@@H]1C[C@H]2CC(F)(F)[C@@H](C1)N2 [Compound 125A, 6-(6-(((1S,3R,5R)-6,6-difluoro-8-azabicyclo[3.2.1]octan-3-yl)(methyl)amino)pyridazin-3-yl)isoquinolin-7-ol]	101 to 500 nM									51 to 100 nM	14.1 ×10⁻⁶ cm/s	43.3 ×10⁻⁶ cm/s		63%	87%		3
CN(c1ccc(-c2ccc(-c3cnn(C)c3)cc2O)nn1)[C@@H]1C[C@H]2CCC[C@H](N2)[C@@H]1F [Compound 15A, 2-(6-(((1S,2S,3R,5R)-2-fluoro-9-azabicyclo[3.3.1]nonan-3-yl)(methyl)amino)pyridazin-3-yl)-5-(1-methyl-1H-pyrazol-4-yl)phenol]		0.01 to 15 nM		2.76 ×10⁻⁶ cm/s	34.4 ×10⁻⁶ cm/s	61%	70%	0.01 to 15 nM	12								
CN(C)C(=O)c1cc2cc(O)c(-c3ccc(N(C4CC4)[C@H]4C[C@@H]5CC[C@@H](N5)[C@H]4F)nn3)cc2o1 [Compound 86B, 6-(6-(cyclopropyl((1R,2R,3S,5S)-2-fluoro-8-azabicyclo[3.2.1]octan-3-yl)amino)pyridazin-3-yl)-5-hydroxy-N,N-dimethylbenzofuran-2-carboxamide]		51 to 100 nM		0.81 ×10⁻⁶ cm/s	53.6 ×10⁻⁶ cm/s	88%	92%	16 to 50 nM	66								
CN(c1ccc(-c2ccc(-c3cnn(C(F)F)c3)cc2O)nn1)[C@H]1C[C@@H]2CCC[C@@H](N2)[C@H]1F [Compound 21B]		0.01 to 15 nM		1.73 ×10⁻⁶ cm/s	30.4 ×10⁻⁶ cm/s	39%	68%	16 to 50 nM	18								
CN(c1ccc(-c2ccc(C#N)cc2O)nn1)[C@H]1C[C@@H]2CCC[C@@H](N2)[C@H]1F [Compound 39B, 4-(6-(((1R,2R,3S,5S)-2-fluoro-9-azabicyclo[3.3.1]nonan-3-yl)(methyl)amino)pyridazin-3-yl)-3-hydroxybenzonitrile]		16 to 50 nM		4.57 ×10⁻⁶ cm/s	40.6 ×10⁻⁶ cm/s	96%	86%	101 to 500 nM	9								
CN(c1ccc(-c2cc3cnccc3cc2O)nn1)[C@H]1C[C@@H]2CC[C@H]([C@H]1F)N2C [Compound 93B, 7-(6-(((1R,2R,3S,5S)-2-fluoro-8-methyl-8-azabicyclo[3.2.1]octan-3-yl)(methyl)amino)pyridazin-3-yl)isoquinolin-6-ol]		51 to 100 nM		5.39 ×10⁻⁶ cm/s	22.3 ×10⁻⁶ cm/s	45%	63%	101 to 500 nM	4								
CN(c1ccc(-c2cc3c(=O)n(C)ccc3s2)nn1)[C@@H]1C[C@H]2CC[C@H](N2)[C@@H]1F (single isomer, unassigned) [Compound 68A]		51 to 100 nM		0.41 ×10⁻⁶ cm/s	45.6 ×10⁻⁶ cm/s	92%	78%	101 to 500 nM	111								
Cc1nc2cc(-c3ccc(N(C)[C@@H]4C[C@H]5CC[C@H](N5)[C@@H]4F)nn3)c(O)cc2o1 [Compound 118A, 5-(6-(((1S,2S,3R,5R)-2-fluoro-8-azabicyclo[3.2.1]octan-3-yl)(methyl)amino)pyridazin-3-yl)-2-methylbenzo[d]oxazol-6-ol]	16 to 50 nM																
CN(c1ccc(-c2cc(F)c(-c3ccn(C)c(=O)c3)cc2O)nn1)[C@H]1C[C@@H]2CC(F)(F)[C@H](C1)N2 [Compound 22B, 4-(4-(6-(((1R,3S,5S)-6,6-difluoro-8-azabicyclo[3.2.1]octan-3-yl)(methyl)amino)pyridazin-3-yl)-2-fluoro-5-hydroxyphenyl)-1-methylpyridin-2(1H)-one]		51 to 100 nM		2.83 ×10⁻⁶ cm/s	87.7 ×10⁻⁶ cm/s	88%	95%		31								
